Results from patent publication US10266526B2, “Substituted 1,2,3-triazoles as SMYD inhibitors for treating cancer” (EPIZYME, INC., priority 2014, dated 2019).

Each compound was assayed against SMYD3 (Homo sapiens (Human), UniProt Q9H7B4) (assay: SMYD3 biochemical assay (SMYD3 enzyme assay on MEKK2 protein substrate, 3H-SAM scintillation proximity assay)). Settings: read-out: SMYD3 Biochem IC50.
Sequence of SMYD3 (Q9H7B4 whole entry): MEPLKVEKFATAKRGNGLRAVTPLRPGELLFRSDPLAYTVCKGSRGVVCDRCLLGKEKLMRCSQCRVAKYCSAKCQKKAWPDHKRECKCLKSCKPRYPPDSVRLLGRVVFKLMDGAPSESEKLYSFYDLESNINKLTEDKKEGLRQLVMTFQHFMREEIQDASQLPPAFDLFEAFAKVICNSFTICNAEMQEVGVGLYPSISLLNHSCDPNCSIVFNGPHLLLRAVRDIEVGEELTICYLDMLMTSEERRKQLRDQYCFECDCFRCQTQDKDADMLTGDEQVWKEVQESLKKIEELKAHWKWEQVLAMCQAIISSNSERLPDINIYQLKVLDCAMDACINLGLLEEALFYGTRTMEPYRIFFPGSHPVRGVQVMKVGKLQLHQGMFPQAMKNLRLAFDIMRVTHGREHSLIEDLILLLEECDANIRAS
How it was run: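 Detection used scintillation proximity beads to capture ³H-methylated GST-MEKK2 after quench with 100 uM final cold SAM. The reaction was started by SAM/MEKK2 addition after a 30 min RT compound–enzyme preincubation. Enzyme was tag-free full-length human SMYD3 from E. coli, in buffer of 25 mM Tris-Cl pH 8.0, 1 mM TCEP, 0.005% BSG, 0.005% Tween 20.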
`CC(NC(=O)[C@H]1CC[C@H](N)CC1)C1CCN(C(=O)[C@H](C)N)CC1` (stereo partly drawn) [compound 262, (1r,4S)-N-(1-(1-(L-alanyl)piperidin-4-yl)ethyl)-4-aminocyclohexane-1-carboxamide] showed an IC50 greater than 100 µM.
`CC(NC(=O)c1ccc(Cl)cc1C(F)(F)F)C1CCN(C(=O)[C@H](C)N)CC1` (stereo partly drawn) [compound 263, N-(1-(1-(L-alanyl)piperidin-4-yl)ethyl)-4-chloro-2-(trifluoromethyl)benzamide] gave an IC50 greater than 100 µM.
With `NCCC(=O)N[C@H]1CC[C@H](NC(=O)c2cc[n+]([O-])cc2)CC1` [compound 264, 4-(((1r,4r)-4-(3-aminopropanamido)cyclohexyl)carbamoyl)pyridine 1-oxide] the IC50 was greater than 100 µM.
With `CC(NC(=O)c1cccc(F)n1)C1CCN(C(=O)[C@H](C)N)CC1` (stereo partly drawn) [compound 265, N-(1-(1-(L-alanyl)piperidin-4-yl)ethyl)-6-fluoropicolinamide] the IC50 was greater than 100 µM.
`CC(NC(=O)c1cccc2c1OC(F)(F)O2)C1CCN(C(=O)[C@H](C)N)CC1` (stereo partly drawn) [compound 266, N-(1-(1-(L-alanyl)piperidin-4-yl)ethyl)-2,2-difluorobenzo[d][1,3]dioxole-4-carboxamide] showed an IC50 greater than 100 µM.
Compound `CC(NC(=O)c1ccncc1F)C1CCN(C(=O)[C@H](C)N)CC1` (stereo partly drawn) [compound 267, N-(1-(1-(L-alanyl)piperidin-4-yl)ethyl)-3-fluoroisonicotinamide] has an IC50 greater than 100 µM.
`CC(NC(=O)c1c[nH]c2ccccc12)C1CCN(C(=O)[C@H](C)N)CC1` (stereo partly drawn) [compound 268, N-(1-(1-(L-alanyl)piperidin-4-yl)ethyl)-1H-indole-3-carboxamide] showed an IC50 greater than 100 µM.
With `N[C@H]1CC[C@H](NC(=O)c2ncccn2)CC1` [compound 269, N-((1r,4r)-4-aminocyclohexyl)pyrimidine-2-carboxamide] the IC50 was greater than 100 µM.
Compound `NCCC(=O)N[C@H]1CC[C@H](NC(=O)c2ccc(O)nn2)CC1` [compound 270] has an IC50 greater than 100 µM.
`N[C@H]1CC[C@H](NC(=O)c2ccc(O)nn2)CC1` [compound 271, N-((1r,4r)-4-aminocyclohexyl)-6-hydroxypyridazine-3-carboxamide] showed an IC50 greater than 100 µM.
With `NCCC(=O)N[C@H]1CC[C@H](NC(=O)c2ccc3cc[nH]c3c2)CC1` [compound 272, N-((1r,4r)-4-(3-aminopropanamido)cyclohexyl)-1H-indole-6-carboxamide] the IC50 was 37.2 µM.
`Cc1c(C(=O)N[C@H]2CC[C@H](N)CC2)nnn1-c1ccccc1` [compound 273, N-((1r,4r)-4-aminocyclohexyl)-5-methyl-1-phenyl-1H-1,2,3-triazole-4-carboxamide] showed an IC50 greater than 100 µM.
`Cc1cc(C)c(C(=O)NC(C)C2CCN(C(=O)[C@H](C)N)CC2)c(=O)[nH]1` (stereo partly drawn) [compound 274, N-(1-(1-(L-alanyl)piperidin-4-yl)ethyl)-4,6-dimethyl-2-oxo-1,2-dihydropyridine-3-carboxamide] showed an IC50 greater than 100 µM.
For `Cn1ncc2ccc(C(=O)N[C@H]3CC[C@H](N)CC3)cc21` [compound 275, N-((1r,4r)-4-aminocyclohexyl)-1-methyl-1H-indazole-6-carboxamide], the IC50 was greater than 100 µM.
`COc1ccc2cc(C(=O)N[C@H]3CC[C@H](N)CC3)ccc2c1` [compound 276, N-((1r,4r)-4-aminocyclohexyl)-6-methoxy-2-naphthamide] gave an IC50 greater than 100 µM.
In the case of `N[C@H]1CC[C@H](NC(=O)c2cc(=O)c3ccccc3o2)CC1` [compound 277, N-((1r,4r)-4-aminocyclohexyl)-4-oxo-4H-chromene-2-carboxamide], the IC50 is reported as greater than 100 µM.
In the case of `N[C@H]1CC[C@H](NC(=O)c2ccc(-n3cnnc3)cc2)CC1` [compound 278, N-((1r,4r)-4-aminocyclohexyl)-4-(4H-1,2,4-triazol-4-yl)benzamide], the IC50 is reported as greater than 100 µM.
`NCCC(=O)N[C@H]1CC[C@H](NC(=O)c2ccc(N3CCCC3)cc2)CC1` [compound 279, N-((1r,4r)-4-(3-aminopropanamido)cyclohexyl)-4-(pyrrolidin-1-yl)benzamide] was tested, and the IC50 was 43.6 µM.
Compound `N[C@H]1CC[C@H](NC(=O)c2ccc(N3CCCC3)cc2)CC1` [compound 280, N-((1r,4r)-4-aminocyclohexyl)-4-(pyrrolidin-1-yl)benzamide] has an IC50 of 48 µM.
With `NCCC(=O)N[C@H]1CC[C@H](NC(=O)c2ccc3ncsc3c2)CC1` [compound 281, N-((1r,4r)-4-(3-aminopropanamido)cyclohexyl)benzo[d]thiazole-6-carboxamide] the IC50 was 29 µM.
For `CC(NC(=O)c1ccc2[nH]ccc2c1)C1CCN(C(=O)[C@H](C)N)CC1` (stereo partly drawn) [compound 283, N-(1-(1-(L-alanyl)piperidin-4-yl)ethyl)-1H-indole-5-carboxamide], the IC50 was greater than 100 µM.
`CC(NC(=O)c1ccc2c(c1)OC(F)(F)O2)C1CCN(C(=O)[C@H](C)N)CC1` (stereo partly drawn) [compound 284, N-(1-(1-(L-alanyl)piperidin-4-yl)ethyl)-2,2-difluorobenzo[d][1,3]dioxole-5-carboxamide] gave an IC50 greater than 100 µM.
For `N[C@H]1CC[C@H](NC(=O)c2ccc3c(c2)OC(F)(F)O3)CC1` [compound 285, N-((1r,4r)-4-aminocyclohexyl)-2,2-difluorobenzo[d][1,3]dioxole-5-carboxamide], the IC50 was 69.1 µM.
In the case of `N[C@H]1CC[C@H](NC(=O)c2ccc3c(c2)no[n+]3[O-])CC1` [compound 286, 5-(((1r,4r)-4-aminocyclohexyl)carbamoyl)benzo[c][1,2,5]oxadiazole 1-oxide], the IC50 is reported as greater than 100 µM.
With `N[C@H]1CC[C@H](NC(=O)c2ccc3nonc3c2)CC1` [compound 287, N-((1r,4r)-4-aminocyclohexyl)benzo[c][1,2,5]oxadiazole-5-carboxamide] the IC50 was greater than 100 µM.
With `NCCC(=O)N[C@H]1CC[C@H](NC(=O)c2cnccc2N)CC1` [compound 288, 4-amino-N-((1r,4r)-4-(3-aminopropanamido)cyclohexyl)nicotinamide] the IC50 was greater than 100 µM.
`Nc1ccncc1C(=O)N[C@H]1CC[C@H](N)CC1` [compound 289, 4-amino-N-((1r,4r)-4-aminocyclohexyl)nicotinamide] showed an IC50 greater than 100 µM.
`NCCC(=O)N[C@H]1CC[C@H](NC(=O)c2cccc3[nH]ccc23)CC1` [compound 290, N-((1r,4r)-4-(3-aminopropanamido)cyclohexyl)-1H-indole-4-carboxamide] gave an IC50 greater than 100 µM.
In the case of `N[C@H]1CC[C@H](NC(=O)c2cccc3[nH]ccc23)CC1` [compound 291, N-((1r,4r)-4-aminocyclohexyl)-1H-indole-4-carboxamide], the IC50 is reported as greater than 100 µM.
`N[C@H]1CC[C@H](NC(=O)c2ccnc(O)c2)CC1` [compound 292, N-((1r,4r)-4-aminocyclohexyl)-2-hydroxyisonicotinamide] showed an IC50 greater than 100 µM.
Compound `NCCC(=O)N[C@H]1CC[C@H](NC(=O)c2ccc(O)nc2)CC1` [compound 294, N-((1r,4r)-4-(3-aminopropanamido)cyclohexyl)-6-hydroxynicotinamide] has an IC50 greater than 100 µM.
For `N[C@H]1CC[C@H](NC(=O)c2ccc(O)nc2)CC1` [compound 295, N-((1r,4r)-4-aminocyclohexyl)-6-hydroxynicotinamide], the IC50 was greater than 100 µM.
In the case of `CC(NC(=O)c1ccccn1)C1CCN(C(=O)[C@H](C)N)CC1` (stereo partly drawn) [compound 296, N-(1-(1-(L-alanyl)piperidin-4-yl)ethyl)picolinamide], the IC50 is reported as greater than 100 µM.
`NCCC(=O)NC1CCC(NC(=O)c2ccccn2)CC1` (stereo not shown) [compound 297, N-(4-(3-aminopropanamido)cyclohexyl)picolinamide] showed an IC50 of 44.2 µM.
Work on `N[C@H]1CC[C@H](NC(=O)c2cnccn2)CC1` [compound 298, N-((1r,4r)-4-aminocyclohexyl)pyrazine-2-carboxamide] yielded an IC50 greater than 100 µM.
Work on `Cc1cccc(Cn2nc(C(C)(C)C)cc2C(=O)NC(C)C2CCN(C(=O)[C@H](C)N)CC2)c1` (stereo partly drawn) [compound 299, N-(1-(1-(L-alanyl)piperidin-4-yl)ethyl)-3-(tert-butyl)-1-(3-methylbenzyl)-1H-pyrazole-5-carboxamide] yielded an IC50 greater than 100 µM.
For `Cc1cccc2cc(C(=O)NC(C)C3CCN(C(=O)[C@H](C)N)CC3)[nH]c12` (stereo partly drawn) [compound 300, N-(1-(1-(L-alanyl)piperidin-4-yl)ethyl)-7-methyl-1H-indole-2-carboxamide], the IC50 was greater than 100 µM.
`COc1cccc(C(=O)NC(C)C2CCN(C(=O)[C@H](C)N)CC2)n1` (stereo partly drawn) [compound 301, N-(1-(1-(L-alanyl)piperidin-4-yl)ethyl)-6-methoxypicolinamide] gave an IC50 greater than 100 µM.
Work on `COc1cnc(C(=O)NC(C)C2CCN(C(=O)[C@H](C)N)CC2)cn1` (stereo partly drawn) [compound 302, N-(1-(1-(L-alanyl)piperidin-4-yl)ethyl)-5-methoxypyrazine-2-carboxamide] yielded an IC50 greater than 100 µM.
In the case of `NCCC(=O)N[C@H]1CC[C@H](NC(=O)[C@H]2CC[C@H](N)CC2)CC1` [compound 303, (1r,4r)-4-amino-N-((1r,4r)-4-(3-aminopropanamido)cyclohexyl)cyclohexane-1-carboxamide], the IC50 is reported as greater than 100 µM.
`N[C@H]1CC[C@H](NC(=O)[C@H]2CC[C@H](N)CC2)CC1` [compound 304, (1r,4r)-4-amino-N-((1r,4r)-4-aminocyclohexyl)cyclohexane-1-carboxamide] gave an IC50 greater than 100 µM.
With `CC(NC(=O)[C@@H]1C[C@H](F)CN1)C1CCN(C(=O)[C@H](C)N)CC1` (stereo partly drawn) [compound 305, (2S,4S)-N-(1-(1-(L-alanyl)piperidin-4-yl)ethyl)-4-fluoropyrrolidine-2-carboxamide] the IC50 was 55.9 µM.
With `CC(NC(=O)[C@H]1Cc2ccccc2CN1)C1CCN(C(=O)[C@H](C)N)CC1` (stereo partly drawn) [compound 306, (3R)-N-(1-(1-(L-alanyl)piperidin-4-yl)ethyl)-1,2,3,4-tetrahydroisoquinoline-3-carboxamide] the IC50 was 48.1 µM.
Compound `N[C@H]1CC[C@H](NC(=O)c2cccc3c2OC(F)(F)O3)CC1` [compound 307, N-((1r,4r)-4-aminocyclohexyl)-2,2-difluorobenzo[d][1,3]dioxole-4-carboxamide] has an IC50 greater than 100 µM.
`N[C@H]1CC[C@H](NC(=O)c2ccncc2F)CC1` [compound 308, N-((1r,4r)-4-aminocyclohexyl)-3-fluoroisonicotinamide] showed an IC50 greater than 100 µM.
`CC(NC(=O)c1cncs1)C1CCN(C(=O)[C@H](C)N)CC1` (stereo partly drawn) [compound 309, N-(1-(1-(L-alanyl)piperidin-4-yl)ethyl)thiazole-5-carboxamide] gave an IC50 greater than 100 µM.
